# Measurements from PubChem BioAssay AID330 (DTP/NCI, 2004).
# Values joined by “and” are separate entries in the source; they are usually repeats but may differ in a detail not shown here. Identical values can stand only once. Toxic doses and inconclusive results are not listed.
# Tested on: P388 leukemia ip, CD2F1 mice, survival T/C
# Experiment: NCI In Vivo Anticancer Drug Screen. Data for tumor model P388 Leukemia (intraperitoneal) in CD2F1 (CDF1) mice
# Settings: endpoint: median survival time, higher = longer survival
# Procedure, shortened: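 Mice carrying the transplanted tumor received test compound or vehicle. Survival was recorded in each group, and the value is the treated-group measurement divided by that of the vehicle-treated control group.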
# [1] = dose: 100.0 mg/kg/injection, schedule: Q04DX003 (ip), vehicle: saline
# [2] = dose: 200.0 mg/kg/injection, schedule: Q04DX003 (ip), vehicle: saline
# [3] = dose: 400.0 mg/kg/injection, schedule: Q04DX003 (ip), vehicle: saline
# [4] = dose: 100.0 mg/kg/injection, schedule: Q01DX009 (ip), vehicle: saline
# [5] = dose: 100.0 mg/kg/injection, schedule: Q01DX009 (ip), vehicle: suspension in saline
# [6] = dose: 60.0 mg/kg/injection, schedule: Q01DX005 (ip), vehicle: saline with Tween-80
# [7] = dose: 120.0 mg/kg/injection, schedule: Q01DX005 (ip), vehicle: saline with Tween-80
# [8] = dose: 240.0 mg/kg/injection, schedule: Q01DX005 (ip), vehicle: saline with Tween-80
# [9] = dose: 25.0 mg/kg/injection, schedule: Q01DX009 (ip), vehicle: saline with Tween-80
# [10] = dose: 50.0 mg/kg/injection, schedule: Q01DX009 (ip), vehicle: saline with Tween-80
# [11] = dose: 200.0 mg/kg/injection, schedule: Q01DX009 (ip), vehicle: saline with Tween-80
# [12] = dose: 100.0 mg/kg/injection, schedule: Q01DX009 (ip), vehicle: saline with Tween-80
# [13] = dose: 25.0 mg/kg/injection, schedule: Q01DX009 (ip), vehicle: saline
# [14] = dose: 50.0 mg/kg/injection, schedule: Q01DX009 (ip), vehicle: saline
# [15] = dose: 50.0 mg/kg/injection, schedule: Q01DX009 (ip), vehicle: Klucel (hydroxypropylcellulose) (HPC)
# [16] = dose: 200.0 mg/kg/injection, schedule: Q01DX009 (ip), vehicle: Klucel (hydroxypropylcellulose) (HPC)
smiles,measurement,setting,value
Nc1cnc(CO)nc1C(=O)O,T/C,"dose: 50.0 mg/kg/injection, schedule: Q01DX005 (ip), vehicle: saline",100 % of control
same,T/C,"dose: 100.0 mg/kg/injection, schedule: Q01DX005 (ip), vehicle: saline",102 % of control
same,T/C,"dose: 200.0 mg/kg/injection, schedule: Q01DX005 (ip), vehicle: saline",107 % of control
COc1ccc(/C=N/NC(=O)/C(C#N)=C/c2ccc(OC)cc2)cc1,T/C,[1],110 % of control
same,T/C,[2],105 % of control
same,T/C,[3],95 % of control
CCN1CCCC(Nc2cc(C)nc(/N=C(/N)Nc3ccc(Cl)c(Cl)c3)n2)C1 (stereo not given),T/C,"dose: 3.13 mg/kg/injection, schedule: Q01DX009 (ip), vehicle: water",93 % of control
same,T/C,"dose: 6.25 mg/kg/injection, schedule: Q01DX009 (ip), vehicle: water",97 % of control
same,T/C,"dose: 12.5 mg/kg/injection, schedule: Q01DX009 (ip), vehicle: water",107 % of control and 97 % of control
same,T/C,"dose: 25.0 mg/kg/injection, schedule: Q01DX009 (ip), vehicle: water",101 % of control
Nc1nc2ccc(Br)cc2s1,T/C,"dose: 50.0 mg/kg/injection, schedule: Q01DX009 (ip), vehicle: suspension in saline",97 % of control
same,T/C,[4],86 % of control
same,T/C,[5],102 % of control
COc1ccc(-c2c(N)cnc(C(=O)O)c2C)c(OCc2ccccc2)c1OC,T/C,"dose: 12.5 mg/kg/injection, schedule: Q01DX009 (ip), vehicle: other",108 % of control
same,T/C,"dose: 25.0 mg/kg/injection, schedule: Q01DX009 (ip), vehicle: other",105 % of control
same,T/C,"dose: 50.0 mg/kg/injection, schedule: Q01DX009 (ip), vehicle: other",102 % of control
same,T/C,"dose: 100.0 mg/kg/injection, schedule: Q01DX009 (ip), vehicle: other",97 % of control
same,T/C,"dose: 200.0 mg/kg/injection, schedule: Q01DX009 (ip), vehicle: other",99 % of control
CN1CCOP(=O)(c2ccccc2)N1 (stereo not given),T/C,[6],99 % of control
same,T/C,[7],100 % of control
same,T/C,[8],89 % of control
CC(C)c1ccc(OC(=O)Nc2c(Cl)cccc2Cl)cc1,T/C,[6],108 % of control
same,T/C,[7],120 % of control
same,T/C,[8],115 % of control
COc1ccc(CN(CCc2ccc(O)cc2)C(=O)C(F)(F)F)cc1O,T/C,"dose: 6.25 mg/kg/injection, schedule: Q01DX009 (ip), vehicle: saline with Tween-80",99 % of control
same,T/C,"dose: 12.5 mg/kg/injection, schedule: Q01DX009 (ip), vehicle: saline with Tween-80",110 % of control
same,T/C,[9],107 % of control
same,T/C,[10],100 % of control
CCCN1COC(OCC)C(C)(C)C1 (stereo not given),T/C,[9],110 % of control
same,T/C,[11],93 % of control
Nc1cccc(CCCCc2ccccc2)c1,T/C,"dose: 100.0 mg/kg/injection, schedule: Q04DX002 (ip), vehicle: saline",103 % of control
same,T/C,"dose: 200.0 mg/kg/injection, schedule: Q04DX002 (ip), vehicle: saline",110 % of control
C1CC[N-]CC1.C1CC[N-]CC1.[Cl][Pt+2]([Cl])([Cl])[Cl],T/C,"dose: 264.0 mg/kg/injection, schedule: Q01DX009 (ip), vehicle: saline with Tween-80",86 % of control
NC(CCC(=O)O)(C(=O)O)c1ccccc1 (stereo not given),T/C,"dose: 0.19 mg/kg/injection, schedule: Q01DX009 (ip), vehicle: saline",101 % of control
same,T/C,"dose: 0.38 mg/kg/injection, schedule: Q01DX009 (ip), vehicle: saline",104 % of control
same,T/C,"dose: 0.75 mg/kg/injection, schedule: Q01DX009 (ip), vehicle: saline",100 % of control
same,T/C,"dose: 1.5 mg/kg/injection, schedule: Q01DX009 (ip), vehicle: saline with Tween-80",98 % of control
same,T/C,"dose: 1.5 mg/kg/injection, schedule: Q01DX009 (ip), vehicle: saline",109 % of control
same,T/C,"dose: 3.0 mg/kg/injection, schedule: Q01DX009 (ip), vehicle: saline with Tween-80",98 % of control
same,T/C,[12],92 % of control
same,T/C,[11],93 % of control
O=C(CCCCC(=O)Nc1ccc2[nH]c3ccccc3c(=O)c2c1)Nc1ccc2[nH]c3ccccc3c(=O)c2c1,T/C,"dose: 50.0 mg/kg/injection, schedule: Q01DX005 (ip), vehicle: saline with Tween-80",104 % of control
same,T/C,"dose: 100.0 mg/kg/injection, schedule: Q01DX005 (ip), vehicle: saline with Tween-80",105 % of control
same,T/C,"dose: 200.0 mg/kg/injection, schedule: Q01DX005 (ip), vehicle: saline with Tween-80",100 % of control
C1CNCCN1,T/C,"dose: 12.5 mg/kg/injection, schedule: Q01DX009 (ip), vehicle: saline",113 % of control and 96 % of control
same,T/C,"dose: 12.5 mg/kg/injection, schedule: Q01DX009 (ip), vehicle: suspension in saline",93 % of control
same,T/C,[13],114 % of control and 96 % of control
same,T/C,[14],94 % of control and 97 % of control
same,T/C,[4],89 % of control
same,T/C,[5],97 % of control
same,T/C,"dose: 150.0 mg/kg/injection, schedule: Q01DX009 (ip), vehicle: saline",100 % of control and 114 % of control
same,T/C,"dose: 150.0 mg/kg/injection, schedule: Q01DX009 (ip), vehicle: suspension in saline",93 % of control
COc1cc(-c2ccc(O)cc2)c(OC)c(O)c1-c1ccc(O)c(O)c1,T/C,"dose: 0.6 mg/kg/injection, schedule: Q01DX009 (ip), vehicle: saline",100 % of control
same,T/C,"dose: 1.2 mg/kg/injection, schedule: Q01DX009 (ip), vehicle: saline",95 % of control
same,T/C,"dose: 10.0 micrograms/kg/injection, schedule: Q01DX009 (ip), vehicle: saline with Tween-80",111 % of control
same,T/C,"dose: 20.0 micrograms/kg/injection, schedule: Q01DX009 (ip), vehicle: saline with Tween-80",105 % of control
same,T/C,"dose: 40.0 micrograms/kg/injection, schedule: Q01DX009 (ip), vehicle: saline with Tween-80",104 % of control
same,T/C,"dose: 80.0 micrograms/kg/injection, schedule: Q01DX009 (ip), vehicle: saline with Tween-80",105 % of control
COc1cc2c(cc1OC)C(=O)C(=C1C=CN(C)C=C1)N=C2,T/C,[1],101 % of control
same,T/C,[2],95 % of control
same,T/C,[3],100 % of control
O=S(=O)(NCCNS(=O)(=O)c1ccccc1)c1ccccc1,T/C,"dose: 25.0 mg/kg/injection, schedule: Q01DX009 (ip), vehicle: Klucel (hydroxypropylcellulose) (HPC)",90 % of control
same,T/C,[15],100 % of control
same,T/C,"dose: 100.0 mg/kg/injection, schedule: Q01DX009 (ip), vehicle: Klucel (hydroxypropylcellulose) (HPC)",90 % of control
same,T/C,[16],91 % of control
CSc1nc(SC)c2c(CO)c(Br)n(Cc3ccccc3)c2n1,T/C,"dose: 100.0 mg/kg/injection, schedule: Q04DX002 (ip), vehicle: saline with Tween-80",98 % of control
same,T/C,"dose: 200.0 mg/kg/injection, schedule: Q04DX002 (ip), vehicle: saline with Tween-80",94 % of control
same,T/C,"dose: 400.0 mg/kg/injection, schedule: Q04DX002 (ip), vehicle: saline with Tween-80",88 % of control
CC1(C)N=C(N)N=C(N)N1c1ccc(CCCCc2ccc(S(=O)(=O)F)cc2)cc1,T/C,"dose: 12.0 mg/kg/injection, schedule: Q01DX009 (ip), vehicle: saline sonified",152 % of control
same,T/C,"dose: 18.0 mg/kg/injection, schedule: Q01DX009 (ip), vehicle: saline sonified",152 % of control
same,T/C,[10],95 % of control
same,T/C,"dose: 50.0 mg/kg/injection, schedule: Q04DX003 (ip), vehicle: saline with Tween-80",100 % of control
O=[N+]([O-])c1cc(Cl)c(Cl)cc1NS(=O)(=O)c1ccccc1,T/C,"dose: 150.0 mg/kg/injection, schedule: Q01DX009 (ip), vehicle: saline with Tween-80",90 % of control
same,T/C,"dose: 150.0 mg/kg/injection, schedule: Q04DX003 (ip), vehicle: saline with Tween-80",100 % of control
same,T/C,"dose: 300.0 mg/kg/injection, schedule: Q01DX009 (ip), vehicle: saline with Tween-80",100 % of control
same,T/C,"dose: 300.0 mg/kg/injection, schedule: Q04DX003 (ip), vehicle: saline with Tween-80",100 % of control
same,T/C,"dose: 600.0 mg/kg/injection, schedule: Q04DX003 (ip), vehicle: saline with Tween-80",95 % of control
CCCCCCC(/C=C/c1ccc(N(C)C)cc1)=N\O,T/C,[12],93 % of control
same,T/C,[11],93 % of control
COC(=N)CCSSCCC(=N)OC,T/C,[13],102 % of control
same,T/C,[14],105 % of control
same,T/C,[4],106 % of control
same,T/C,[5],101 % of control
CC(=O)CC(c1ccccc1)C(Sc1ccccc1)(Sc1ccccc1)Sc1ccccc1 (stereo not given),T/C,[15],101 % of control
same,T/C,[16],93 % of control
